# What was measured:
# UACC-257 = assay: NCI in vitro DTP human cell line screen, UACC-257; type: cell-based; settings: Melanoma, 1.00E−5 Molar
# Method: (§1) Then, a cell toxicity assay of the cancer lines made by National Cancer Institute will be discussed as follows. The cell toxicity assay is performed by choosing ten compounds (existing certification numbers) from the 59 compounds disclosed in the present invention first.
# HCT-116 = assay: NCI in vitro DTP human cell line screen, HCT-116; type: cell-based; settings: Colon Cancer, 1.00E−5 Molar
# Method: as §1
# MDA-MB-231/ATCC = assay: NCI in vitro DTP human cell line screen, MDA-MB-231/ATCC; type: cell-based; settings: Breast Cancer, 1.00E−5 Molar
# Method: as §1
# NCI-H23 = assay: NCI in vitro DTP human cell line screen, NCI-H23; type: cell-based; settings: Non-Small Cell Lung Cancer, 1.00E−5 Molar
# Method: as §1
# HOP-92 = assay: NCI in vitro DTP human cell line screen, HOP-92; type: cell-based; settings: Non-Small Cell Lung Cancer, 1.00E−5 Molar
# Method: as §1
# NCI-H322M = assay: NCI in vitro DTP human cell line screen, NCI-H322M; type: cell-based; settings: Non-Small Cell Lung Cancer, 1.00E−5 Molar
# Method: as §1
# IGROV1 = assay: NCI in vitro DTP human cell line screen, IGROV1; type: cell-based; settings: Ovarian Cancer, 1.00E−5 Molar
# Method: as §1
# MCF7 = assay: NCI in vitro DTP human cell line screen, MCF7; type: cell-based; settings: Breast Cancer, 1.00E−5 Molar
# Method: as §1
# SNB-75 = assay: NCI in vitro DTP human cell line screen, SNB-75; type: cell-based; settings: CNS Cancer, 1.00E−5 Molar
# Method: as §1
# NCI-H522 = assay: NCI in vitro DTP human cell line screen, NCI-H522; type: cell-based; settings: Non-Small Cell Lung Cancer, 1.00E−5 Molar
# Method: as §1
# A control cell lines = assay: MTT assay, A control cell lines (lung cancer cell); type: cell-based
# Excerpt: Please refer to Table 1 and FIGS. 4A-4C. According to a MTT assay (Table 1), various cell viabilities of the A control cell lines can be obtained and illustrated in FIG. 4A while the compounds No. 2˜30 are used to treat A control cell lines, wherein A control cell lines are lung cancer cell.
# HL-60(TB) = assay: NCI in vitro DTP human cell line screen, HL-60(TB); type: cell-based; settings: Leukemia, 1.00E−5 Molar
# Method: as §1
# MALME-3M = assay: NCI in vitro DTP human cell line screen, MALME-3M; type: cell-based; settings: Melanoma, 1.00E−5 Molar
# Method: as §1
# HCT-15 = assay: NCI in vitro DTP human cell line screen, HCT-15; type: cell-based; settings: Colon Cancer, 1.00E−5 Molar
# Method: as §1
# OVCAR-8 = assay: NCI in vitro DTP human cell line screen, OVCAR-8; type: cell-based; settings: Ovarian Cancer, 1.00E−5 Molar
# Method: as §1
# SK-MEL-28 = assay: NCI in vitro DTP human cell line screen, SK-MEL-28; type: cell-based; settings: Melanoma, 1.00E−5 Molar
# Method: as §1
# NCI-H226 = assay: NCI in vitro DTP human cell line screen, NCI-H226; type: cell-based; settings: Non-Small Cell Lung Cancer, 1.00E−5 Molar
# Method: as §1
# OVCAR-3 = assay: NCI in vitro DTP human cell line screen, OVCAR-3; type: cell-based; settings: Ovarian Cancer, 1.00E−5 Molar
# Method: as §1
# SW-620 = assay: NCI in vitro DTP human cell line screen, SW-620; type: cell-based; settings: Colon Cancer, 1.00E−5 Molar
# Method: as §1
# OVCAR-5 = assay: NCI in vitro DTP human cell line screen, OVCAR-5; type: cell-based; settings: Ovarian Cancer, 1.00E−5 Molar
# Method: as §1
# CCRF-CEM = assay: NCI in vitro DTP human cell line screen, CCRF-CEM; type: cell-based; settings: Leukemia, 1.00E−5 Molar
# Method: as §1
# ACHN = assay: NCI in vitro DTP human cell line screen, ACHN; type: cell-based; settings: Renal Cancer, 1.00E−5 Molar
# Method: as §1
# HS 578-T = assay: NCI in vitro DTP human cell line screen, HS 578-T; type: cell-based; settings: Breast Cancer, 1.00E−5 Molar
# Method: as §1
# HCC-2998 = assay: NCI in vitro DTP human cell line screen, HCC-2998; type: cell-based; settings: Colon Cancer, 1.00E−5 Molar
# Method: as §1
# SK-MEL-5 = assay: NCI in vitro DTP human cell line screen, SK-MEL-5; type: cell-based; settings: Melanoma, 1.00E−5 Molar
# Method: as §1
# OVCAR-4 = assay: NCI in vitro DTP human cell line screen, OVCAR-4; type: cell-based; settings: Ovarian Cancer, 1.00E−5 Molar
# Method: as §1
# PC-3 = assay: NCI in vitro DTP human cell line screen, PC-3; type: cell-based; settings: Prostate Cancer, 1.00E−5 Molar
# Method: as §1
# COLO 205 = assay: NCI in vitro DTP human cell line screen, COLO 205; type: cell-based; settings: Colon Cancer, 1.00E−5 Molar
# Method: as §1
# MOLT-4 = assay: NCI in vitro DTP human cell line screen, MOLT-4; type: cell-based; settings: Leukemia, 1.00E−5 Molar
# Method: as §1
# MDA-MB-435 = assay: NCI in vitro DTP human cell line screen, MDA-MB-435; type: cell-based; settings: Melanoma, 1.00E−5 Molar
# Method: as §1
# BT-549 = assay: NCI in vitro DTP human cell line screen, BT-549; type: cell-based; settings: Breast Cancer, 1.00E−5 Molar
# Method: as §1
# 786-0 = assay: NCI in vitro DTP human cell line screen, 786-0; type: cell-based; settings: Renal Cancer, 1.00E−5 Molar
# Method: as §1
# SF-268 = assay: NCI in vitro DTP human cell line screen, SF-268; type: cell-based; settings: CNS Cancer, 1.00E−5 Molar
# Method: as §1
# RPMI-8226 = assay: NCI in vitro DTP human cell line screen, RPMI-8226; type: cell-based; settings: Leukemia, 1.00E−5 Molar
# Method: as §1
# A3 cell lines = assay: MTT assay, A3 cell lines (lung cancer stem cell); type: cell-based
# Excerpt: Please to FIG. 4B, various cell viabilities of the A3 cell lines can be obtained through the MTT assay and illustrated in FIG. 4B while the compounds No. 1˜30 are used to treat A3 cell lines, wherein A3 cell lines are lung cancer stem cell.
# MDA-MB-468 = assay: NCI in vitro DTP human cell line screen, MDA-MB-468; type: cell-based; settings: Breast Cancer, 1.00E−5 Molar
# Method: as §1
# NCI-H460 = assay: NCI in vitro DTP human cell line screen, NCI-H460; type: cell-based; settings: Non-Small Cell Lung Cancer, 1.00E−5 Molar
# Method: as §1
# LOX IMVI = assay: NCI in vitro DTP human cell line screen, LOX IMVI; type: cell-based; settings: Melanoma, 1.00E−5 Molar
# Method: as §1
# EKVX = assay: NCI in vitro DTP human cell line screen, EKVX; type: cell-based; settings: Non-Small Cell Lung Cancer, 1.00E−5 Molar
# Method: as §1
# T-47D = assay: NCI in vitro DTP human cell line screen, T-47D; type: cell-based; settings: Breast Cancer, 1.00E−5 Molar
# Method: as §1
# KM12 = assay: NCI in vitro DTP human cell line screen, KM12; type: cell-based; settings: Colon Cancer, 1.00E−5 Molar
# Method: as §1
# K562 = assay: NCI in vitro DTP human cell line screen, K562; type: cell-based; settings: Leukemia, 1.00E−5 Molar
# Method: as §1
# NCI/ADR-RES = assay: NCI in vitro DTP human cell line screen, NCI/ADR-RES; type: cell-based; settings: Ovarian Cancer, 1.00E−5 Molar
# Method: as §1
# [1] = MTT assay, HEL299 fibroblast; type: cell-based; settings: human
# Excerpt: Please refer to FIG. 4C, various cell viabilities of the HEL299 cell lines can be obtained through the MTT assay while the compounds No. 1˜30 are used to treat HEL299 cell lines, wherein HEL299 cell lines are fibroblast.
# DU145 = assay: NCI in vitro DTP human cell line screen, DU145; type: cell-based; settings: Prostate Cancer, 1.00E−5 Molar
# Method: as §1
# HT29 = assay: NCI in vitro DTP human cell line screen, HT29; type: cell-based; settings: Colon Cancer, 1.00E−5 Molar
# Method: as §1
# UO-31 = assay: NCI in vitro DTP human cell line screen, UO-31; type: cell-based; settings: Renal Cancer, 1.00E−5 Molar
# Method: as §1
# SF-295 = assay: NCI in vitro DTP human cell line screen, SF-295; type: cell-based; settings: CNS Cancer, 1.00E−5 Molar
# Method: as §1
# M14 = assay: NCI in vitro DTP human cell line screen, M14; type: cell-based; settings: Melanoma, 1.00E−5 Molar
# Method: as §1
# 60 cancer lines = assay: NCI cell toxicity assay of 60 cancer lines, whole panel summary; type: cell-based, human; settings: mean over all cell lines; 1.00E−5 Molar
# Method: as §1
# SK-OV-3 = assay: NCI in vitro DTP human cell line screen, SK-OV-3; type: cell-based; settings: Ovarian Cancer, 1.00E−5 Molar
# Method: as §1
# SR = assay: NCI in vitro DTP human cell line screen, SR; type: cell-based; settings: Leukemia, 1.00E−5 Molar
# Method: as §1
# SK-MEL-2 = assay: NCI in vitro DTP human cell line screen, SK-MEL-2; type: cell-based; settings: Melanoma, 1.00E−5 Molar
# Method: as §1
# SF-539 = assay: NCI in vitro DTP human cell line screen, SF-539; type: cell-based; settings: CNS Cancer, 1.00E−5 Molar
# Method: as §1
# U251 = assay: NCI in vitro DTP human cell line screen, U251; type: cell-based; settings: CNS Cancer, 1.00E−5 Molar
# Method: as §1
# CAKI-1 = assay: NCI in vitro DTP human cell line screen, CAKI-1; type: cell-based; settings: Renal Cancer, 1.00E−5 Molar
# Method: as §1
# TK-10 = assay: NCI in vitro DTP human cell line screen, TK-10; type: cell-based; settings: Renal Cancer, 1.00E−5 Molar
# Method: as §1
smiles,measurement,setting,value
"Cc1cccc(C)c1Sc1ccc2c(=O)c3ccccc3sc2c1Cl [No. 12, 4-Chloro-3-(2,6-dimethylphenylthio)-9H-thioxanthen-9-one]",Growth Percent,UACC-257,92.09%
same,Growth Percent,HCT-116,105.21%
same,Growth Percent,MDA-MB-231/ATCC,108.12%
same,Growth Percent,NCI-H23,93.96%
same,Growth Percent,HOP-92,88.79%
same,Growth Percent,NCI-H322M,113.78%
same,Growth Percent,IGROV1,98.49%
same,Growth Percent,MCF7,94.01%
same,Growth Percent,SNB-75,90.00%
same,Growth Percent,NCI-H522,100.28%
same,cell viabilities of A control cell lines (MTT assay),A control cell lines,103 ± 5.86%
same,Growth Percent,HL-60(TB),109.07%
same,Growth Percent,MALME-3M,100.81%
same,Growth Percent,HCT-15,99.05%
same,Growth Percent,OVCAR-8,96.86%
same,Growth Percent,SK-MEL-28,110.00%
same,Growth Percent,NCI-H226,109.77%
same,Growth Percent,OVCAR-3,113.05%
same,Growth Percent,SW-620,105.40%
same,Growth Percent,OVCAR-5,96.86%
same,Growth Percent,CCRF-CEM,88.07%
same,Growth Percent,ACHN,103.68%
same,Growth Percent,HS 578-T,107.64%
same,Growth Percent,HCC-2998,103.54%
same,Growth Percent,SK-MEL-5,104.77%
same,Growth Percent,OVCAR-4,107.51%
same,Growth Percent,PC-3,98.56%
same,Growth Percent,COLO 205,110.46%
same,Growth Percent,MOLT-4,104.33%
same,Growth Percent,MDA-MB-435,107.09%
same,Growth Percent,BT-549,105.28%
same,Growth Percent,786-0,108.98%
same,Growth Percent,SF-268,98.33%
same,Growth Percent,RPMI-8226,101.60%
same,cell viabilities of A3 cell lines (MTT assay),A3 cell lines,102 ± 9.52%
same,Growth Percent,MDA-MB-468,113.20%
same,Growth Percent,NCI-H460,110.85%
same,Growth Percent,LOX IMVI,105.37%
same,Growth Percent,EKVX,103.89%
same,Growth Percent,T-47D,97.56%
same,Growth Percent,KM12,113.08%
same,Growth Percent,K562,97.86%
same,Growth Percent,NCI/ADR-RES,105.14%
same,viability,[1],101 ± 9.52%
same,Growth Percent,DU145,109.56%
same,Growth Percent,HT29,103.86%
same,Growth Percent,UO-31,87.03%
same,Growth Percent,SF-295,98.15%
same,Growth Percent,M14,105.63%
same,"Growth Percent, Mean",60 cancer lines,102.52%
same,Growth Percent,SK-OV-3,111.32%
same,Growth Percent,SR,95.93%
same,Growth Percent,SK-MEL-2,108.94%
same,Growth Percent,SF-539,106.48%
same,Growth Percent,U251,95.70%
same,Growth Percent,CAKI-1,89.35%
same,Growth Percent,TK-10,99.22%

# Source: patent publication US8410161B2, “Thioxanthone ring system derivatives” (National Defense Medical Center, priority 2010, dated 2013)
